The structures appear in SMILES notation.

The term IC50 denotes the concentration that gives 50% inhibition.

The test deals with T1, PARP (Rattus norvegicus, UniProt P27008).
T1 construct: Nucleus obtained by centrifugation was extracted with 0.4 M NaCl and the resulting soluble fraction was used as a source of PARP enzyme; from tissue; host or cells: Wistar rat forebrain, nuclear 0.4 M NaCl soluble fraction
T1 sequence (P27008 whole entry): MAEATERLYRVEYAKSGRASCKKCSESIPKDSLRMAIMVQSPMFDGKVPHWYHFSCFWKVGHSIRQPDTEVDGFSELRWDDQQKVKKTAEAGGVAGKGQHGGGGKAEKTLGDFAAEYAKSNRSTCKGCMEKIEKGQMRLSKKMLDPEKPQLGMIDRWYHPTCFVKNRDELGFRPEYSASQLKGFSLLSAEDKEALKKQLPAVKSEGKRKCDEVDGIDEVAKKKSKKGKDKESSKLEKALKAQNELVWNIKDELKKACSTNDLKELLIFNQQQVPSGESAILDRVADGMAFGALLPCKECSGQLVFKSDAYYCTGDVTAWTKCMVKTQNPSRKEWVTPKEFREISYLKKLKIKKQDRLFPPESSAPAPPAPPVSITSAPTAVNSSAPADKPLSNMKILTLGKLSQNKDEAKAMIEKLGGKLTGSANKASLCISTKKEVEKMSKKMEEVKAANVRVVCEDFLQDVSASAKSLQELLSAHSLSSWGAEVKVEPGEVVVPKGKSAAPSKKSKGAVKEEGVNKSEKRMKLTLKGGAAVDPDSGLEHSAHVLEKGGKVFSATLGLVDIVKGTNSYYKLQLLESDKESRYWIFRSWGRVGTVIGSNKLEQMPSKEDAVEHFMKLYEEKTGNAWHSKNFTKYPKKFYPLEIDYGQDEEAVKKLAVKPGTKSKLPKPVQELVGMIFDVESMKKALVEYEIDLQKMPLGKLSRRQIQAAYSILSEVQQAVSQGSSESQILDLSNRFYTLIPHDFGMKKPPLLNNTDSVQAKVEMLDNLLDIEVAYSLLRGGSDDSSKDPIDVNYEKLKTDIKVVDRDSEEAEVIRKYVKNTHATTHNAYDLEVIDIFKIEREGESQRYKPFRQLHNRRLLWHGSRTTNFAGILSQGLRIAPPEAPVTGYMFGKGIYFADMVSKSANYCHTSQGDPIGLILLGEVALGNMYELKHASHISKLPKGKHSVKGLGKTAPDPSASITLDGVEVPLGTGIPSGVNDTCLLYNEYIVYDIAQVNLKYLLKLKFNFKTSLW
Description: Measurement of PARP enzyme activity. Type of test: biochemical, Wistar rats. Conditions: soluble nuclear fraction of Wistar rat forebrain as enzyme source; 250 µM NAD, 32P-NAD; 37°C for 30 minutes; 6 concentrations; read-out: PARP inhibitory activity IC50. Here is the method:
Test method: The forebrain was collected from Wistar rats and homogenized. Nucleus obtained by centrifugation was extracted with 0.4 M NaCl and the resulting soluble fraction was used as a source of PARP enzyme source. […] Incubation was carried out at 37°C for 30 minutes, and then the reaction was stopped with 20%trichloroacetic acid. The acid-insoluble fraction produced above was adsorbed to a GF/B filter, and the filter was washed several times, and then radioactivity on the filter was measured by using a liquid scintillation counter. The PARP activity was measured by subtracting radioactivity as a blank value of a sample not added with the enzyme source. […]
`O=c1[nH]c(-c2ccccc2)nc2c1CSCC2` [Example 4, 2-Phenyl-3,5,7,8-tetrahydrothiopyrano[4,3-d]pyrimidin-4-one]: the IC50 stood at 410 nM.
With `O=c1[nH]cnc2c1CSCC2` [Example 3, 3,5,7,8-Tetrahydrothiopyrano[4,3-d]pyrimidin-4-one] the figure was 1460 nM.
With `C=C1CSCc2c1nc(C)[nH]c2=O` [Example 20, 2-Methyl-8-methylene-3,5,7,8-tetrahydrothiopyrano[4,3-d]pyrimidin-4-one] the figure was 250 nM; with `COCC=C1CSCc2c1nc(C)[nH]c2=O` [Example 39, 8-(2-Methoxyethylidene)-2-methyl-3,5,7,8-tetrahydrothiopyrano-[4,3-d]pyrimidin-4-one], 440 nM.
The figure for `C=C1CCCc2c1nc(C)[nH]c2=O` [Example 21(A), 2-Methyl-8-methylene-5,6,7,8-tetrahydro-3H-quinazolin-4-one] is 350 nM.

(Values after patent EP1142881A1, “POLY(ADP-RIBOSE) POLYMERASE INHIBITORS CONSISTING OF PYRIMIDINE DERIVATIVES” (Meiji Seika Kaisha, Ltd., priority 1999, dated 2000).)
